Literature values as cited in US11406678B2, “Simmondsin formulation” (priority 2016, dated 2022).

Details: rats, 25 mg or 50 mg simmondsin per kg body weight

For `CO[C@H]1[C@@H](OC)C[C@@H](O[C@@H]2O[C@H](CO)[C@@H](O)[C@H](O)[C@H]2O)/C(=C\C#N)[C@@H]1O` [simmondsin], the weight loss is given as “no effect on the weight loss”.
